Drawing on US20250179047A1, “5-[7-(3,4-DIHYDRO-1H-ISOQUINOLINE-2-CARBONYL)-1,2,3,4 TETRAHYDROISOQUINOLIN-6-YL]-1H-PYRROLE-3-CARBOXAMIDE DERIVATIVES, PHARMACEUTICAL COMPOSITIONS CONTAINING THEM AND THEIR USES AS PRO-APOPTOTIC AGENTS” (LES LABORATOIRES SERVIER, priority 2022, published 2025), this text covers IC50 for four compounds.

Each structure is given as a SMILES string.

Format in all cases: cell-based
For assay [1], the system named is KMS-12-PE Bcl-2 WT. As to the kind of experiment: In vitro cytotoxicity CellTiter-Glo 48 h, KMS-12-PE Bcl-2 WT. Conditions: C50 = concentration needed to reach 50% of the cellular viability. The method, boiled down: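 KMS-12-PE myeloma cells were lentivirally transduced with wild-type or G101V-mutant Bcl-2 and sorted by TagRFP. They were exposed to compounds as 11-point dose responses for 48 h at 37 °C, 5% CO2. Viability was read by CellTiter-Glo ATP luminescence, and C50 was the concentration giving 50% viability.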
A general note: In ATP-based viability assays light output follows the ATP content of the culture.

The subject of assay [2] is KMS12PE. Put plainly: In vitro cytotoxicity CellTiterGlo 72 h, KMS12PE. The note with it: Homo sapiens, KMS-12-PE, read-out: C50 nM, KMS12PE. As to the method:
(§1) KMS-12-PE (ACC 606) were purchased from the Leibniz-Institute DSMZ (Braunschweig, Germany) and were grown at 37° C. in a humidified atmosphere with 5% CO2 in media recommended by the suppliers. Lentiviral particles containing Bcl-2 wild type (also named “Bcl2 WT”), Bcl-2 mutated on G101V (also named “Bcl2 G101V”), Bcl-2 mutated on D103Y (also named “Bcl2 D103Y”), Bcl-2 mutated on D103V (also named “Bcl2 D103V”), Bcl-2 mutated on D103E (also named “Bcl2 D103E”), Bcl-2 mutated on F104I (also named “Bcl2 F104I”), Bcl-2 mutated on F104L (also named “Bcl2 F104L”), Bcl-2 mutated on D111A (also named “Bcl2 D111A”), Bcl-2 mutated on A113G (also named “Bcl2 A113G”), Bcl-2 mutated on R129L (also named “Bcl2 R129L”), Bcl-2 mutated on V156D (also named “Bcl2 V156D”) were cloned into pcLV-CMV-DEST-IRES-TagRFP. Lentiviral particles (1×10^6) were mixed with Polybrene at 8 μg/ml and transduced by spinoculation for 1 h at 32° C. and incubated overnight. After 8 days, TagRFP positive-cells were sorted by FACS. BCL2 expression was monitored by immunoblotting using anti-Flag and anti-BCL2 antibodies. Cells were seeded into 96-wells plates and treated with 1:3.16 serial dilution of compounds (9 different concentrations). Cell viability was assessed using CellTiterGlo reagent following treatment for 72 h. Results were normalized to the viability of cells without compounds (control wells). The C50 values were calculated using nonlinear regression algorithms in XCell software.

Assay [3] deals with KMS12PE Bcl2 WT. Put plainly: In vitro cytotoxicity CellTiterGlo 72 h, KMS12PE Bcl2 WT. Conditions: Homo sapiens, KMS-12-PE, read-out: C50 nM, KMS12PE Bcl2 WT. As to the method:
as §1

For assay [4], the system named is KMS12PE Bcl2 D103Y. As to the kind of experiment: In vitro cytotoxicity CellTiterGlo 72 h, KMS12PE Bcl2 D103Y. Conditions: Homo sapiens, KMS-12-PE, read-out: C50 nM, KMS12PE Bcl2 D103Y. As to the method:
as §1

The test system of assay [5] is KMS12PE Bcl2 D103E. As to the kind of experiment: In vitro cytotoxicity CellTiterGlo 72 h, KMS12PE Bcl2 D103E. Conditions: Homo sapiens, KMS-12-PE, read-out: C50 nM, KMS12PE Bcl2 D103E. As to the method:
as §1

Assay [6] has as its system KMS12PE Bcl2 V156D. As to the kind of experiment: In vitro cytotoxicity CellTiterGlo 72 h, KMS12PE Bcl2 V156D. The note with it: Homo sapiens, KMS-12-PE, read-out: C50 nM, KMS12PE Bcl2 V156D. As to the method:
as §1

Assay [7] concerns KMS12PE Bcl2 D103V. Put plainly: In vitro cytotoxicity CellTiterGlo 72 h, KMS12PE Bcl2 D103V. Conditions: Homo sapiens, KMS-12-PE, read-out: C50 nM, KMS12PE Bcl2 D103V. As to the method:
as §1

Assay [8] deals with KMS12PE Bcl2 F104L. Put plainly: In vitro cytotoxicity CellTiterGlo 72 h, KMS12PE Bcl2 F104L. Conditions: Homo sapiens, KMS-12-PE, read-out: C50 nM, KMS12PE Bcl2 F104L. As to the method:
as §1

On to `Cc1c(N(C(=O)c2cc(-c3cc4c(cc3C(=O)N3Cc5ccccc5C[C@H]3C)CN(C(=O)Cc3ccc(OCCN5CCOCC5)cc3)CC4)n(C)c2C)c2ccc(O)cc2)cc(C#N)n1C` [Example 21, N-(5-cyano-1,2-dimethyl-1H-pyrrol-3-yl)-N-(4-hydroxyphenyl)-1,2-dimethyl-5-{7-[(3R)-3-methyl-1,2,3,4-tetrahydroisoquinoline-2-carbonyl]-2-(2-{4-[2-(morpholin-4-yl)ethoxy]phenyl}acetyl)-1,2,3,4-tetrahydroisoquinolin-6-yl}-1H-pyrrole-3-carboxamide], for which the IC50 turned out to be 0.0057 µM in assay [1] (Homo sapiens, KMS-12-PE); 0.24 nM in assay [2]; 2.56 nM in assay [3]; 2.1 nM in assay [4]; 2.36 nM in assay [5]; 9.77 nM in assay [6]. The IC50 in assay [7] was 3.34 nM; in assay [8] it was 15.8 nM.
As for `Cc1c(N(C(=O)c2cc(-c3cc4c(cc3C(=O)N3Cc5ccccc5C[C@H]3C)CN(C(=O)Cc3ccc(OCCC5CCOCC5)cc3)CC4)n(C)c2C)c2ccc(O)cc2)cc(C#N)n1C` [Example 27, N-(5-cyano-1,2-dimethyl-1H-pyrrol-3-yl)-N-(4-hydroxyphenyl)-1,2-dimethyl-5-{7-[(3R)-3-methyl-1,2,3,4-tetrahydroisoquinoline-2-carbonyl]-2-(2-{4-[2-(oxan-4-yl)ethoxy]phenyl}acetyl)-1,2,3,4-tetrahydroisoquinolin-6-yl}-1H-pyrrole-3-carboxamide], the IC50 in assay [1] (Homo sapiens, KMS-12-PE) came to 0.0037 µM; in assay [2] it was 0.19 nM; in assay [3], 1.53 nM; in assay [4], 1.1 nM; in assay [5], 1.44 nM; in assay [6], 3.84 nM. Also, the IC50 worked out at 1.55 nM in assay [7] and 5.51 nM in assay [8].
As for `Cc1c(N(C(=O)c2cc(-c3cc4c(cc3C(=O)N3Cc5ccccc5C[C@H]3CN3CCCCC3)CN(C(=O)Cc3ccc(OCCN5CCOCC5)cc3F)CC4)n(C)c2C)c2ccc(O)cc2)cc(C#N)n1C` [Example 43, N-(5-cyano-1,2-dimethylpyrrol-3-yl)-5-[2-(2-{2-fluoro-4-[2-(morpholin-4-yl)ethoxy]phenyl}acetyl)-7-{[(3S)-3-(piperidin-1-ylmethyl)-3,4-dihydro-1H-isoquinolin-2-yl]carbonyl}-3,4-dihydro-1H-isoquinolin-6-yl]-N-(4-hydroxyphenyl)-1,2-dimethylpyrrole-3-carboxamide], the IC50 in assay [1] was 0.0048 µM; in assay [2], 0.22 nM; in assay [3], 1.8 nM; in assay [4] it was 1.28 nM; in assay [5], 1.44 nM; in assay [6], 6.63 nM. Further, the IC50 was determined as 2 nM in assay [7] and 8.49 nM in assay [8].
For `Cc1c(N(C(=O)c2cc(-c3cc4c(cc3C(=O)N3Cc5ccccc5C[C@H]3C)CN(C(=O)Cc3ccc(N5CCN6CCOC[C@@H]6C5)cc3F)CC4)n(C)c2C)c2ccc(O)cc2)cc(C#N)n1C` [Example 45, 5-[2-(2-{4-[(9aS)-octahydropyrazino[2,1-c][1,4]oxazin-8-yl]-2-fluorophenyl}acetyl)-7-[(3R)-3-methyl-1,2,3,4-tetrahydroisoquinoline-2-carbonyl]-1,2,3,4-tetrahydroisoquinolin-6-yl]-N-(5-cyano-1,2-dimethyl-1H-pyrrol-3-yl)-N-(4-hydroxyphenyl)-1,2-dimethyl-1H-pyrrole-3-carboxamide], the IC50 was 0.005 µM in assay [1] (Homo sapiens, KMS-12-PE); 0.32 nM in assay [2]; 3.3 nM in assay [3]; 0.2 nM in assay [4]; 2.7 nM in assay [5]; 0.96 nM in assay [6]. The IC50 was found to be 2.7 nM in assay [7] and 22.5 nM in assay [8].
